The supplement of paper PMC8617591

Legend:
[1] = test system: Mycobacterium tuberculosis Erdman (autoluminescent); test: total FIC50 (Loewe) at 50% inhibition, three-drug combination (log2); higher = more antagonistic
Experimental: (§1)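 DiaMOND equipotent three-drug combination dose responses (10 doses, 1.5- or 2-fold spacing, centred on IC90) against autoluminescent M. tuberculosis Erdman in 8 in vitro models. Read-out is OD600, or luminescence for the intracellular and dormancy models, normalised to untreated wells. Hill-fit Einf, AUC25 and GRinf are potency metrics; FIC50 and FIC90 are total Loewe fractional inhibitory concentrations as log2 (negative = synergy).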

[2] = test system: Mycobacterium tuberculosis Erdman (autoluminescent); test: total FIC90 (Loewe) at 90% inhibition, three-drug combination (log2); higher = more antagonistic
Experimental: as §1

[3] = test system: Mycobacterium tuberculosis Erdman (autoluminescent); test: Einf, fitted maximum growth inhibition of three-drug combination (fraction); higher = stronger maximal inhibition
Experimental: as §1

[4] = test system: Mycobacterium tuberculosis Erdman (autoluminescent); test: AUC25, normalised area under dose response up to IC25 (three-drug combination) (fraction (0-1)); higher = more potent at low dose
Experimental: as §1

[5] = test system: Mycobacterium tuberculosis Erdman (autoluminescent); test: GRinf, maximum normalised growth rate inhibition (three-drug combination) (unitless (-1 to 1)); higher = less effect (negative = killing)
Experimental: as §1

[6] = in vitro model: acidic pH 5.7, time point: constant (~7 days, model-specific)
[7] = in vitro model: acidic pH 5.7, time point: terminal (~4-5 doublings, model-specific)
[8] = in vitro model: butyrate, time point: constant (~7 days, model-specific)
[9] = in vitro model: butyrate, time point: terminal (~4-5 doublings, model-specific)
[10] = in vitro model: cholesterol 0.05 mM, time point: constant (~7 days, model-specific)
[11] = in vitro model: cholesterol 0.05 mM, time point: terminal (~4-5 doublings, model-specific)
[12] = in vitro model: cholesterol-high 0.2 mM, time point: constant (~7 days, model-specific)
[13] = in vitro model: cholesterol-high 0.2 mM, time point: terminal (~4-5 doublings, model-specific)
[14] = in vitro model: dormancy (butyrate + nitrate, low O2), time point: constant (~7 days, model-specific)
[15] = in vitro model: dormancy (butyrate + nitrate, low O2), time point: terminal (~4-5 doublings, model-specific)
[16] = in vitro model: standard 7H9 glycerol, time point: constant = terminal
[17] = in vitro model: valerate, time point: constant (~7 days, model-specific)
[18] = in vitro model: valerate, time point: terminal (~4-5 doublings, model-specific)
[19] = in vitro model: intracellular J774, time point: constant = terminal

COc1nc2ccc(Br)cc2cc1[C@@H](c1ccccc1)[C@@](O)(CCN(C)C)c1cccc2ccccc12 [bedaquiline] + CC(C)/N=c1\cc2n(-c3ccc(Cl)cc3)c3ccccc3nc-2cc1Nc1ccc(Cl)cc1 [clofazimine] + CC[C@@H](CO)NCCN[C@@H](CC)CO [ethambutol] was tested, and the “total FIC50” value [1, 6] was 0.516, the “total FIC50” value [1, 7] was 0.534 and the “total FIC50” value [1, 8] was 0.078. The “total FIC50” value [1, 9] was 0.111, the “total FIC50” value [1, 10] was 0.0426 and the “total FIC50” value [1, 11] was 0.424. The “total FIC50” value [1, 12] was 0.329, the “total FIC50” value [1, 13] was 0.543 and the “total FIC50” value [1, 14] was 0.788. The “total FIC50” value [1, 15] was 0.238, the “total FIC50” value [1, 16] was -0.254 and the “total FIC50” value [1, 17] was 0.469. For the same compound, the “total FIC50” value [1, 18] was 0.16, the “total FIC90” value [2, 7] was 0.129 and the “total FIC90” value [2, 9] was -0.667. For the same compound, the “total FIC90” value [2, 13] was 0.542, the “total FIC90” value [2, 15] was 0.0433 and the “total FIC90” value [2, 19] was -0.364. The “total FIC90” value [2, 18] was -0.225, the Einf [3, 6] was 0.852 and the Einf [3, 7] was 0.969. The Einf [3, 8] was 0.945, the Einf [3, 9] was 0.976 and the Einf [3, 10] was 0.762. For the same compound, the Einf [3, 11] was 0.937, the Einf [3, 12] was 0.996 and the Einf [3, 13] was 1. For the same compound, the Einf [3, 14] was 0.82, the Einf [3, 15] was 0.991 and the Einf [3, 19] was 0.992. The Einf [3, 16] was 0.965, the Einf [3, 17] was 0.947 and the Einf [3, 18] was 0.962. The AUC25 [4, 6] was 0.0844, the AUC25 [4, 7] was 0.0687 and the AUC25 [4, 8] was 0.0618. It also gave an AUC25 [4, 9] of 0.0476, an AUC25 [4, 10] of 0.0892 and an AUC25 [4, 11] of 0.117. For the same compound, the AUC25 [4, 12] was 0.0568, the AUC25 [4, 13] was 0.0708 and the AUC25 [4, 14] was 0.102. For the same compound, the AUC25 [4, 15] was 0.0994, the AUC25 [4, 16] was 0.0939 and the AUC25 [4, 17] was 0.107. For the same compound, the AUC25 [4, 18] was 0.0804, the GRinf [5, 6] was -0.216 and the GRinf [5, 7] was -0.273. The GRinf [5, 8] was -0.0931, the GRinf [5, 9] was -0.104 and the GRinf [5, 10] was -0.109. For the same compound, the GRinf [5, 11] was -0.32, the GRinf [5, 12] was -0.788 and the GRinf [5, 13] was -0.736. The GRinf [5, 14] was 0.429, the GRinf [5, 15] was -0.239 and the GRinf [5, 19] was -0.72. It also gave a GRinf [5, 16] of -0.0889, a GRinf [5, 17] of -0.0899 and a GRinf [5, 18] of -0.0795.

For COc1nc2ccc(Br)cc2cc1[C@@H](c1ccccc1)[C@@](O)(CCN(C)C)c1cccc2ccccc12 [bedaquiline] + CC(C)/N=c1\cc2n(-c3ccc(Cl)cc3)c3ccccc3nc-2cc1Nc1ccc(Cl)cc1 [clofazimine] + CO[C@H]1/C=C/O[C@@]2(C)Oc3c(C)c(O)c4c(O)c(c(/C=N/N5CCN(C6CCCC6)CC5)c(O)c4c3C2=O)NC(=O)/C(C)=C\C=C\[C@H](C)[C@H](O)[C@@H](C)[C@@H](O)[C@@H](C)[C@H](OC(C)=O)[C@@H]1C [rifapentine], the “total FIC50” value [1, 6] was 0.793, the “total FIC50” value [1, 7] was 0.66 and the “total FIC50” value [1, 8] was 0.174. The “total FIC50” value [1, 9] was 0.264, the “total FIC50” value [1, 10] was -0.467 and the “total FIC50” value [1, 11] was 0.869. The “total FIC50” value [1, 12] was -0.0878, the “total FIC50” value [1, 13] was 0.507 and the “total FIC50” value [1, 14] was -0.0609. The “total FIC50” value [1, 15] was -0.242, the “total FIC50” value [1, 16] was -0.0863 and the “total FIC50” value [1, 17] was 0.292. For the same compound, the “total FIC50” value [1, 18] was 0.461, the “total FIC90” value [2, 7] was 0.55 and the “total FIC90” value [2, 8] was -0.813. The “total FIC90” value [2, 9] was -0.221, the “total FIC90” value [2, 11] was -0.165 and the “total FIC90” value [2, 12] was -0.883. For the same compound, the “total FIC90” value [2, 13] was -0.0793, the “total FIC90” value [2, 14] was -0.282 and the “total FIC90” value [2, 15] was -0.206. For the same compound, the “total FIC90” value [2, 19] was -0.0198, the “total FIC90” value [2, 16] was -0.842 and the “total FIC90” value [2, 18] was 0.966. The Einf [3, 6] was 0.924, the Einf [3, 7] was 0.997 and the Einf [3, 8] was 0.948. For the same compound, the Einf [3, 9] was 0.983, the Einf [3, 10] was 0.716 and the Einf [3, 11] was 0.926. The Einf [3, 12] was 0.965, the Einf [3, 13] was 1 and the Einf [3, 14] was 0.937. For the same compound, the Einf [3, 15] was 0.997, the Einf [3, 19] was 0.951 and the Einf [3, 16] was 0.959. It also gave an Einf [3, 17] of 0.895, an Einf [3, 18] of 0.95 and an AUC25 [4, 6] of 0.0909. The AUC25 [4, 7] was 0.0906, the AUC25 [4, 8] was 0.0667 and the AUC25 [4, 9] was 0.0586. The AUC25 [4, 10] was 0.0889, the AUC25 [4, 11] was 0.085 and the AUC25 [4, 12] was 0.0509. It also gave an AUC25 [4, 13] of 0.0654, an AUC25 [4, 14] of 0.0857 and an AUC25 [4, 15] of 0.0766. For the same compound, the AUC25 [4, 16] was 0.079, the AUC25 [4, 17] was 0.0956 and the AUC25 [4, 18] was 0.0686. The GRinf [5, 6] was -0.309, the GRinf [5, 7] was -0.284 and the GRinf [5, 8] was -0.116. It also gave a GRinf [5, 9] of -0.124, a GRinf [5, 10] of -0.179 and a GRinf [5, 11] of -0.231. It also gave a GRinf [5, 12] of -0.378, a GRinf [5, 13] of -0.595 and a GRinf [5, 14] of 0.218. The GRinf [5, 15] was -0.206, the GRinf [5, 19] was -0.199 and the GRinf [5, 16] was -0.0819. The GRinf [5, 17] was -0.0953 and the GRinf [5, 18] was -0.0333.

In the case of COc1nc2ccc(Br)cc2cc1[C@@H](c1ccccc1)[C@@](O)(CCN(C)C)c1cccc2ccccc12 [bedaquiline] + CC(C)/N=c1\cc2n(-c3ccc(Cl)cc3)c3ccccc3nc-2cc1Nc1ccc(Cl)cc1 [clofazimine] + CO[C@H]1/C=C/O[C@@]2(C)Oc3c(C)c(O)c4c(O)c(c(/C=N/N5CCN(C)CC5)c(O)c4c3C2=O)NC(=O)/C(C)=C\C=C\[C@H](C)[C@H](O)[C@@H](C)[C@@H](O)[C@@H](C)[C@H](OC(C)=O)[C@@H]1C [rifampicin], the “total FIC50” value [1, 6] is reported as 0.927, the “total FIC50” value [1, 7] is reported as 0.816 and the “total FIC50” value [1, 8] is reported as 0.164. For the same compound, the “total FIC50” value [1, 9] was 0.163, the “total FIC50” value [1, 10] was -0.919 and the “total FIC50” value [1, 11] was 0.904. For the same compound, the “total FIC50” value [1, 12] was -0.143, the “total FIC50” value [1, 13] was 0.757 and the “total FIC50” value [1, 14] was -0.0697. The “total FIC50” value [1, 15] was -0.41, the “total FIC50” value [1, 16] was -0.172 and the “total FIC50” value [1, 17] was 0.776. The “total FIC50” value [1, 18] was 0.627, the “total FIC90” value [2, 7] was 0.52 and the “total FIC90” value [2, 8] was -0.692. For the same compound, the “total FIC90” value [2, 9] was -0.325, the “total FIC90” value [2, 11] was -0.861 and the “total FIC90” value [2, 12] was -0.728. For the same compound, the “total FIC90” value [2, 13] was -0.216, the “total FIC90” value [2, 14] was -0.643 and the “total FIC90” value [2, 15] was -0.344. The “total FIC90” value [2, 19] was 0.287, the “total FIC90” value [2, 16] was -1.01 and the “total FIC90” value [2, 18] was 0.54. For the same compound, the Einf [3, 6] was 0.926, the Einf [3, 7] was 0.992 and the Einf [3, 8] was 0.954. The Einf [3, 9] was 0.983, the Einf [3, 10] was 0.714 and the Einf [3, 11] was 0.925. For the same compound, the Einf [3, 12] was 0.933, the Einf [3, 13] was 0.999 and the Einf [3, 14] was 0.906. It also gave an Einf [3, 15] of 0.994, an Einf [3, 19] of 0.965 and an Einf [3, 16] of 0.959. For the same compound, the Einf [3, 17] was 0.88, the Einf [3, 18] was 0.936 and the AUC25 [4, 6] was 0.0895. For the same compound, the AUC25 [4, 7] was 0.0837, the AUC25 [4, 8] was 0.0821 and the AUC25 [4, 9] was 0.0695. It also gave an AUC25 [4, 10] of 0.0702, an AUC25 [4, 11] of 0.0755 and an AUC25 [4, 12] of 0.0563. It also gave an AUC25 [4, 13] of 0.0498, an AUC25 [4, 14] of 0.0659 and an AUC25 [4, 15] of 0.0651. For the same compound, the AUC25 [4, 16] was 0.0883, the AUC25 [4, 17] was 0.0872 and the AUC25 [4, 18] was 0.0594. The GRinf [5, 6] was -0.41, the GRinf [5, 7] was -0.332 and the GRinf [5, 8] was -0.113. The GRinf [5, 9] was -0.115, the GRinf [5, 10] was -0.146 and the GRinf [5, 11] was -0.226. For the same compound, the GRinf [5, 12] was -0.277, the GRinf [5, 13] was -0.582 and the GRinf [5, 14] was 0.222. It also gave a GRinf [5, 15] of -0.191, a GRinf [5, 19] of -0.213 and a GRinf [5, 16] of -0.1. The GRinf [5, 17] was -0.0295 and the GRinf [5, 18] was -0.0101.
